In series [1] the target is Transient receptor potential cation channel subfamily A member 1 (Rattus norvegicus, UniProt Q6RI86). Nature of the series: Agonist activity at rat TRPA1 channel expressed in HEK293 cells assessed as calcium influx measured at every 1 second for 60 seconds by fluorescence analysis. Format: functional, cell-based.
The target in series [2] is Transient receptor potential cation channel subfamily A member 1 (Homo sapiens, UniProt O75762). Nature of the series: Agonist activity at human TRPA1 channel expressed in HEK293 cells assessed as calcium influx measured at every 1 second for 60 seconds by fluorescence analysis. Format: functional, cell-based.
Transient receptor potential cation channel subfamily A member 1 (Homo sapiens, UniProt O75762), sequence (O75762 whole entry): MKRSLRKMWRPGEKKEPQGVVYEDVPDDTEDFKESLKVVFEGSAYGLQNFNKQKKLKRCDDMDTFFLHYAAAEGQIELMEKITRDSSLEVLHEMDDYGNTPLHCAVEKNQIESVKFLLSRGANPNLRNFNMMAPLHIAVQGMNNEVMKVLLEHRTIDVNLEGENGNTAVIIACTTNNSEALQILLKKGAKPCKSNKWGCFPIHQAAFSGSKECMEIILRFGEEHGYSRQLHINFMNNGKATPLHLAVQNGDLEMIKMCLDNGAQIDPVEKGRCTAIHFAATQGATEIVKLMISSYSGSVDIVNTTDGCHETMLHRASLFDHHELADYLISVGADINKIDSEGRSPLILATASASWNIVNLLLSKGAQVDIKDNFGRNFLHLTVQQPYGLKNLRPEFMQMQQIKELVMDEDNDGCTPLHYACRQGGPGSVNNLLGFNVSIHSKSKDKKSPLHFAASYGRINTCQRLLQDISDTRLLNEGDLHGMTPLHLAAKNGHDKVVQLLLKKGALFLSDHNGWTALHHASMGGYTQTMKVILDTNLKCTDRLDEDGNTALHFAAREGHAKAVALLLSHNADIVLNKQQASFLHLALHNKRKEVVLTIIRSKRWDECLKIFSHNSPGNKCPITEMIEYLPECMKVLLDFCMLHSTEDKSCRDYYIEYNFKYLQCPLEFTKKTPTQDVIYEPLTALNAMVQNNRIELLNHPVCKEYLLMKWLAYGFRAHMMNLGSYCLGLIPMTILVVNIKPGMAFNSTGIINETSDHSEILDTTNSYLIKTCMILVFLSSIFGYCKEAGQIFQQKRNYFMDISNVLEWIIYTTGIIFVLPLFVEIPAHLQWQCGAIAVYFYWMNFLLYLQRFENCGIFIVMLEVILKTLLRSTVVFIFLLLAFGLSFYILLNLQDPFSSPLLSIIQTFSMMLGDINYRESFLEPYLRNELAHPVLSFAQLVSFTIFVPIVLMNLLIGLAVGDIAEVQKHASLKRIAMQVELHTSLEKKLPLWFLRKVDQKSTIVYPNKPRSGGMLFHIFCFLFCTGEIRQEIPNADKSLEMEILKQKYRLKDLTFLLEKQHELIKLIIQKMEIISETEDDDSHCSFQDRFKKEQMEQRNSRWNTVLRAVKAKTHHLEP
Series [3] deals with Transient receptor potential cation channel subfamily A member 1 (Rattus norvegicus) (UniProt Q6RI86). Description: Agonist activity at rat TRPA1 channel expressed in HEK293 cells assessed as calcium influx at 10 uM measured at every 1 second for 60 seconds by fluorescence analysis. Format: functional, cell-based.
Transient receptor potential cation channel subfamily A member 1 (Rattus norvegicus), sequence (Q6RI86 whole entry): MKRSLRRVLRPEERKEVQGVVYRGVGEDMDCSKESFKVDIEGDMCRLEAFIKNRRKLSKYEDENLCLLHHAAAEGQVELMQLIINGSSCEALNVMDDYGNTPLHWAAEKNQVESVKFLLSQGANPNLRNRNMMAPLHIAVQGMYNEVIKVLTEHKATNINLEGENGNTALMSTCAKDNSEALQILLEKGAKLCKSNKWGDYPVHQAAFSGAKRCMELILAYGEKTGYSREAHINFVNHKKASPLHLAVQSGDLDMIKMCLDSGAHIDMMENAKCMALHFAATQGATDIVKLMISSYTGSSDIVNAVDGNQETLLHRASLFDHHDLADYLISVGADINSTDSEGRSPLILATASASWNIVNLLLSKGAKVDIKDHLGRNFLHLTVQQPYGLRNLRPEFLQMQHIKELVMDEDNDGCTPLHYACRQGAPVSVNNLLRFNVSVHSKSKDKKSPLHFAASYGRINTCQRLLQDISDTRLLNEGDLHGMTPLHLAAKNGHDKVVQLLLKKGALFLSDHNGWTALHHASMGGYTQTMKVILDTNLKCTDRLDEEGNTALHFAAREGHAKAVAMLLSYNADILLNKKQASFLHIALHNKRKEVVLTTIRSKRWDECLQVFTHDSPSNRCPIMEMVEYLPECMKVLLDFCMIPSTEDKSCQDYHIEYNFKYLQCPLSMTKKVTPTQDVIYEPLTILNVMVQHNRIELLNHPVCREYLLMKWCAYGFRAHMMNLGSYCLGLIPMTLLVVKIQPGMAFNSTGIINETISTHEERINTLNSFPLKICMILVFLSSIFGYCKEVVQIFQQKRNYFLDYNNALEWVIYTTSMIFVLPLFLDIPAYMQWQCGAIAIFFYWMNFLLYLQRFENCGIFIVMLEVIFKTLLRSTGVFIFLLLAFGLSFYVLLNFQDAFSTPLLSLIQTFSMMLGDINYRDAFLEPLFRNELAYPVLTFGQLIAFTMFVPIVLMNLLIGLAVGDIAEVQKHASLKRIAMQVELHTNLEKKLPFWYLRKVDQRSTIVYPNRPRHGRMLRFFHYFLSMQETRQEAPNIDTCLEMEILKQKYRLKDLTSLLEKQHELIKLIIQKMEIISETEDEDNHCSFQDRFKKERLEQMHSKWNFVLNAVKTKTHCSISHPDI
For series [4], the target named is Transient receptor potential cation channel subfamily V member 1 (Homo sapiens) (UniProt Q8NER1). Description: Agonist activity at human TRPV1 receptor. Format: functional.
Transient receptor potential cation channel subfamily V member 1 (Homo sapiens), sequence (Q8NER1 whole entry): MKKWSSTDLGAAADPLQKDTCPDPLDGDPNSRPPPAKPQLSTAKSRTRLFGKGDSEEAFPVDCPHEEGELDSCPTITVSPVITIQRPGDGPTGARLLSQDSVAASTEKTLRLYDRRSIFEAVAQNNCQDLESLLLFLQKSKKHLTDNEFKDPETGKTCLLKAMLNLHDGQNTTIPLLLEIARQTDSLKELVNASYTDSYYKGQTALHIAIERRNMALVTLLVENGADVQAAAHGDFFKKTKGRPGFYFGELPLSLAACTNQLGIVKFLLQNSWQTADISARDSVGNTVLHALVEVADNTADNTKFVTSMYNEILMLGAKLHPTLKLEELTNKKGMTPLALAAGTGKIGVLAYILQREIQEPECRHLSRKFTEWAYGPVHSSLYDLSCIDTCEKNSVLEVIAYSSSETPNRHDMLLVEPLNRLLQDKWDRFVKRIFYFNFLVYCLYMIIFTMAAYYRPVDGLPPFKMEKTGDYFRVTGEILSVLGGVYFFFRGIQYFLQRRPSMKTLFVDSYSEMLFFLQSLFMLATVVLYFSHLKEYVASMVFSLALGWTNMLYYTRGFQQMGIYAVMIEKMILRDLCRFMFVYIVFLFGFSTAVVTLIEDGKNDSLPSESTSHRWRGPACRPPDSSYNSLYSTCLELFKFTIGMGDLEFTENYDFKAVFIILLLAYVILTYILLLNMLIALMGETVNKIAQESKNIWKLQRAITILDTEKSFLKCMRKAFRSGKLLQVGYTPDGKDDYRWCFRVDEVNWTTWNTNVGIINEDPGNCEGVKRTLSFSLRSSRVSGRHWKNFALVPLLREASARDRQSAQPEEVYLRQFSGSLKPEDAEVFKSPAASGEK
Series [5] can be described thus: Inhibition of chloride channel at 1.5 uM.
The target of series [6] is Transient receptor potential cation channel subfamily V member 1 (Homo sapiens) (UniProt Q8NER1). Description: Antagonist activity at human TRPV1 receptor. Format: functional.
Series [7] deals with D(3) dopamine receptor (Homo sapiens) (UniProt P35462). Description: Inhibition of dopamine D3 receptor at 1.9 uM.
For series [8], the target named is Transient receptor potential cation channel subfamily M member 8 (Homo sapiens) (UniProt Q7Z2W7). Description: Antagonist activity at human TRPM8 receptor. The series is classed as functional.
Transient receptor potential cation channel subfamily M member 8 (Homo sapiens), sequence (Q7Z2W7 whole entry, looked up): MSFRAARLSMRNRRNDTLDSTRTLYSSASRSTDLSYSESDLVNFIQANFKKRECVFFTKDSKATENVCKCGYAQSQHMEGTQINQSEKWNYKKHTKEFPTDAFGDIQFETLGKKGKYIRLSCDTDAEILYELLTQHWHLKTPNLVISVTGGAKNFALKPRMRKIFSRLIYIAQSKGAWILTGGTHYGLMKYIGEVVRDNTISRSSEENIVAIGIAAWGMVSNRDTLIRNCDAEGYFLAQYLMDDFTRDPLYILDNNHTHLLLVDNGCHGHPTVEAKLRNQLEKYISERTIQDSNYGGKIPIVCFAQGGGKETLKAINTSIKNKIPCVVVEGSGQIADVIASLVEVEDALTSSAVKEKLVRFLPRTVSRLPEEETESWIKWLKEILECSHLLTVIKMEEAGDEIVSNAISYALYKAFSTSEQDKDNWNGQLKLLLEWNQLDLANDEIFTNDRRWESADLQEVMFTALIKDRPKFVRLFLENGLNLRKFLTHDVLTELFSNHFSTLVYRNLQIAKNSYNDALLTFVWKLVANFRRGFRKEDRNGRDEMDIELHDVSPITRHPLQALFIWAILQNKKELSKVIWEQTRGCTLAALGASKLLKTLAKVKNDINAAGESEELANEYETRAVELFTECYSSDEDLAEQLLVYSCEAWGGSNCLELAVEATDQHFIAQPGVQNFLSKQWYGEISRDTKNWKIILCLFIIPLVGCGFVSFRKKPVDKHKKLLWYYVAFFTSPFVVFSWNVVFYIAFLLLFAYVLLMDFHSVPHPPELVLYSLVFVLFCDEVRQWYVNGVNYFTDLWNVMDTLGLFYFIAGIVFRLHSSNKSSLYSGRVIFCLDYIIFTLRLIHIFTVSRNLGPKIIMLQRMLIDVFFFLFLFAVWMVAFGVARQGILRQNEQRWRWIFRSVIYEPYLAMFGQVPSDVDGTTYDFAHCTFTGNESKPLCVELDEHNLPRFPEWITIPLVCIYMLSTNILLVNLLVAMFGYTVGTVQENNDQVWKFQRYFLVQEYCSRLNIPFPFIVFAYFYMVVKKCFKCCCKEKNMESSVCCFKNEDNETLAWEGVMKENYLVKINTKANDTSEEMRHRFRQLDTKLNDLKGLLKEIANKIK
Series [9] has as its target Transient receptor potential cation channel subfamily V member 4 (Homo sapiens) (UniProt Q9HBA0). Description: Antagonist activity at human TRPV4 receptor. The series is classed as functional.
Series [10] concerns the target Transient receptor potential cation channel subfamily M member 8 (Homo sapiens) (UniProt Q7Z2W7). Nature of the series: Agonist activity at human TRPM8 receptor. The series is classed as functional.
For series [11], the species on record is Mus musculus. Description: Antinociceptive activity against formalin-induced inflammatory pain in Trpa1-positive CD1 mouse assessed as increase in time spent in paw licking at 30 nmol, intraplantar measured every 5 mins for 60 mins. Format: functional, organism-based.
The species named for series [12] is Mus musculus. Nature of the series: Antinociceptive activity against formalin-induced inflammatory pain in Trpa1-knock out CD1 mouse assessed as increase in time spent in paw licking at 30 nmol, intraplantar measured every 5 mins for 60 mins. Format: functional, organism-based.
The nature of series [13]: Aqueous solubility of the compound at pH 7.4. Format: physicochemical.
For series [14], the target named is Transient receptor potential cation channel subfamily V member 4 (Homo sapiens) (UniProt Q9HBA0). Nature of the series: Agonist activity at human TRPV4 receptor. The series is classed as functional.
Transient receptor potential cation channel subfamily V member 4 (Homo sapiens), sequence (Q9HBA0 whole entry): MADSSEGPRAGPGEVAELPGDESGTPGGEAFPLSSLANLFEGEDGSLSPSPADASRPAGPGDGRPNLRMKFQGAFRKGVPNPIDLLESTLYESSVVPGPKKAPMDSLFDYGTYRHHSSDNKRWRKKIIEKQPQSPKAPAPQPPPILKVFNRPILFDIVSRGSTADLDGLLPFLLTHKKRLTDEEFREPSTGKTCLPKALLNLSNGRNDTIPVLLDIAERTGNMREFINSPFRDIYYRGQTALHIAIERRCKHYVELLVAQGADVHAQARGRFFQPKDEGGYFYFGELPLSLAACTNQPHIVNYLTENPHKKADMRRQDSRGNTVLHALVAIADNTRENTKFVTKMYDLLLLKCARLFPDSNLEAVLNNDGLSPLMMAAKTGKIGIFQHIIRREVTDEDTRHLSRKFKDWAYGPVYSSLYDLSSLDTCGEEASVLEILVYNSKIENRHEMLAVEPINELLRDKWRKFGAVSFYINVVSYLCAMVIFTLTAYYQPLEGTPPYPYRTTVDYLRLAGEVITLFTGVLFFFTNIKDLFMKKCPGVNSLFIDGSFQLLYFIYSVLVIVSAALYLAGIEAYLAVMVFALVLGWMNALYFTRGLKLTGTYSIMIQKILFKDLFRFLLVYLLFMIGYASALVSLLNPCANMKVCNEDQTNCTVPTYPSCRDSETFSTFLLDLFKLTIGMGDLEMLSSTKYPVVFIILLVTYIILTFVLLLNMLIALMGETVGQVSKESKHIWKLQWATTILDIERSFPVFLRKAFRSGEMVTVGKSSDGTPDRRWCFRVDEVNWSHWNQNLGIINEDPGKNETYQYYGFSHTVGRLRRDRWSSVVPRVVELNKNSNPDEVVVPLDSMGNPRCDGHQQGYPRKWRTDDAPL
The test system of series [15] is Mus musculus. Nature of the series: Antinociceptive activity against formalin-induced inflammatory pain in Trpa1-positive CD1 mouse assessed as increase in time spent in paw licking at 30 nmol, intraplantar measured every 5 mins for 60 mins in pretreated with 100 mg/kg Trpa1 antagonist HC003031. Format: functional, organism-based. Further details: dose 100 mg/kg.

Series [16] has as its target Sodium-dependent noradrenaline transporter (Homo sapiens) (UniProt P23975). Nature of the series: Inhibition of noradrenaline transporter at 2.8 uM.
A short description of series [17]: Inhibition of sigma receptor at 1.1 uM.
Series [18] deals with Sodium-dependent dopamine transporter (Homo sapiens) (UniProt Q01959). Nature of the series: Inhibition of dopamine transporter at 1.6 uM.

Converted amounts (≈) assume the structure as drawn. The source made the active and inactive calls. No cut-off for these calls is given here.

This is an account of results in ChEMBL document CHEMBL1817669, “Design and pharmacological evaluation of PF-4840154, a non-electrophilic reference agonist of the TrpA1 channel” (Bioorg Med Chem Lett, 2011).

Transient receptor potential cation channel subfamily A member 1 (Rattus norvegicus, UniProt Q6RI86), sequence (Q6RI86 whole entry): as the sequence (Q6RI86 whole entry) above

Regarding `O=C(NCc1ccccc1)c1cnc(N2CCN(C(=O)c3ccccc3)CC2)nc1NC1CC1`, the 50% effective concentration (EC50) in series [1] is 5600 nM; in series [2] (hek293) it was “Not Active”.

In the case of `CCCCN1CCN(c2ncc(C(=O)NCc3ccccc3)c(NC3CC3)n2)CC1`, the activation in series [3] was 30%. For the same molecule, the EC50 entry in [2] (hek293) is reported as “Not Active”.

For `CC(C)CNc1nc(N2CCN(Cc3ccccc3)CC2)ncc1C(=O)NCc1cccnc1`, the EC50 was found to be 215 nM in series [1] and 49 nM in series [2] (read-out: EC50).

As for `CC(C)CNc1nc(N2CCN(Cc3ccccc3)CC2)ncc1C(=O)NCc1ccccn1`, the 50% effective concentration (EC50) in series [1] is 2250 nM; in [2] (hek293), “Not Active”.

For the molecule `O=C(NCc1ccccc1)c1cnc(N2CCN(CC3CCCOC3)CC2)nc1NC1CC1` (stereo not given), the EC50 was 848 nM in series [1] and 109 nM in series [2] (read-out: EC50).

As for `COCCNC(=O)c1cnc(N2CCN(Cc3ccccc3)CC2)nc1NCC(C)C`, the values for the EC50 in [1] and in [2] (hek293) were 581 nM and “Not Active”, respectively.

On to `CC(C)CNc1nc(N2CCN(Cc3ccccc3)CC2)ncc1C(=O)NCc1ccccc1`, for which the EC50 turned out to be 175 nM in series [1] and 79 nM in series [2] (read-out: EC50).

Regarding `CC(C)CNc1nc(N2CCN(CC3CCCOC3)CC2)ncc1C(=O)NCc1ccccc1` (stereo not given), the result in series [4], in series [6], in series [8], in series [9], in series [10] and in series [12] was inactive. For the same molecule, the outcome in [14] and in series [15] was inactive. Further, the inhibition in [5], in series [7], in series [16], in [17] and in [18] was less than 10% throughout. Besides, the outcome in series [11] was Active. Moreover, the EC50 in series [1] is 97 nM; in [2] (read-out: EC50) it was 23 nM. The molecule further displayed a solubility in series [13] of 6.4 µM (≈ 2.99 µg/mL).

As for `O=C(NCc1ccccc1)c1cnc(N2CCN(C(=O)c3c(F)cccc3F)CC2)nc1NC1CC1`, the 50% effective concentration (EC50) came out at 186 nM in series [1] and 27 nM in series [2] (read-out: EC50).

As to `O=C(NCc1ccccc1)c1cnc(N2CCN(Cc3ccccc3)CC2)nc1NC1CC1`, the results for the half-maximal effective concentration (EC50) in series [1] and in series [2] (hek293) were 468 nM and “Not Active”, respectively.
